Experimental findings from PubChem BioAssay (NCI) are described below.

Experiment in all cases: NCI tumour cell line growth inhibition, 48 h
Assay [1] has as its system HOP-92 NSCLC.
Assay [2] has as its system IGROV1 ovarian.
Assay [3] has as its system HOP-62 NSCLC.
The subject of assay [4] is A549 NSCLC.
Assay [5] concerns U251 CNS.
Assay [6] relates to COLO 205 colon.
The test system of assay [7] is HCT-15 colon.
The subject of assay [8] is K-562 leukemia.
Assay [9] relates to PC-3 prostate.
Assay [10] has as its system MDA-MB-435.

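Grown in 96-well plates, cells were treated for 48 hours with each compound at five concentrations. Insufficient inhibition: endpoint recorded as highest concentration tested. The concentration for full growth arrest is given as TGI.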

As for `COC(=O)C1=CCC2c3[nH]c4ccccc4c3CCN2C1` (stereo not drawn), the TGI in assay [1], in [2], in assay [3], in assay [4], in assay [5] and in [6] was over 354 µM each time. For the same compound, the TGI in [7] and in [8] was over 354 µM throughout.

Take `CN(C)NC1=NS(=O)(=O)c2cc3c(=O)n(C)[nH]c3cc2S1`: the TGI in assay [1], in assay [2], in assay [3], in assay [9], in assay [4] and in assay [5] was over 10 µM throughout. For the same compound, the TGI in assay [6], in assay [7] and in [8] was over 10 µM in each case.

As for `CCOC(=O)c1cc([N+](=O)[O-])c(Sc2ncnc3nc[nH]c23)c([N+](=O)[O-])c1`, the TGI in assay [1] was determined as 7.85 µM; in assay [2] it was 13.7 µM; in assay [3], 24.8 µM; in [10], 14.7 µM; in assay [9], 27.9 µM; in assay [4] it was 55.6 µM. Further, the TGI in assay [5] is 22.8 µM; in assay [6], 3.08 µM; in [7] it was 6.57 µM.

On to `CC(C)C(CCOS(=O)(=O)O)CCC(C)[C@H]1[C@@H](O)C(O)C2[C@]3(O)C[C@@H](O)C4(O)C[C@@H](O)CC[C@]4(C)C3CC[C@@]21C` (stereo partly drawn), for which the TGI in assay [1], in assay [2], in assay [3], in assay [4], in assay [5] and in assay [6] was over 100 µM each time. Also, the TGI in assay [7] and in [8] was over 100 µM throughout.

Turning to `O=C(OCC(OC(=O)c1ccccc1)C1CC(C2(O)CCCCC2)C(=O)O1)c1ccccc1` (stereo not drawn), the TGI in assay [2], in [3], in assay [10], in [9], in assay [4] and in assay [5] was over 25 µM throughout. In addition, the TGI in assay [6], in assay [7] and in assay [8] was over 25 µM each time.

As for `CC#CC#C/C=C1\C=CC2(OC=CC2O)O1` (stereo not drawn), the TGI was over 23.3 µM in assay [1]; over 23.3 µM in [2]; over 23.3 µM in assay [3]; over 23.3 µM in assay [4]; over 23.3 µM in assay [5]; 6.83 µM in assay [6]. Moreover, the TGI in assay [7] and in assay [8] was over 23.3 µM throughout.

With `CSC1=Nc2ccccc2N=C(c2ccccc2)C1`, the TGI in assay [1] was 85.3 µM; in assay [2] it was over 100 µM; in assay [3], over 100 µM; in assay [4], over 100 µM; in assay [5], over 100 µM; in assay [6] it was 51.8 µM. The TGI in assay [7] and in assay [8] was over 100 µM each time.

For the compound `CC1(C)N([O-])[N+](=O)C1(C)O` (stereo not drawn), the TGI in assay [2], in [10], in assay [9], in [4], in assay [5] and in [6] was over 100 µM in each case. Moreover, the TGI in [7] and in [8] was over 100 µM throughout.

Take `COC(=O)[C@H](Cc1ccccc1)NC(=O)N(CCNC(=O)OC(C)(C)C)c1ccccc1`: the TGI in assay [2], in assay [3], in assay [10], in assay [9], in assay [4] and in assay [5] was over 100 µM in each case. The TGI in assay [6], in assay [7] and in assay [8] was over 100 µM each time.

Consider `COc1ccc(C=O)cc1OS(=O)(=O)C(F)(F)C(F)(F)C(F)(F)C(F)(F)F`, for which the TGI in assay [1] is 58.6 µM; in assay [2], over 67.5 µM; in assay [3] it was over 79.8 µM; in assay [10] it was 48.9 µM; in assay [9], over 100 µM; in assay [4], over 100 µM. In addition, the TGI in assay [5] is 66.5 µM; in assay [6] it was 62.4 µM; in [7], over 100 µM.

Turning to `C/C(CCN(C)C)=N\OC(=O)c1ccccc1`, the TGI in assay [1], in [2], in assay [3], in assay [4], in assay [5] and in assay [6] was over 100 µM throughout. Besides, in assay [8], the TGI was over 100 µM.

For `Cc1ccc(S(=O)(=O)Nn2c(S)c(C#N)c(-c3ccc(Cl)cc3)c(C#N)c2=O)cc1`, the TGI was over 100 µM in assay [1]; 59.4 µM in assay [2]; 86.9 µM in assay [10]; over 100 µM in assay [9]; over 100 µM in assay [4]; 58 µM in [5]. For the same compound, the TGI was over 100 µM in [6], 71.1 µM in assay [7] and over 100 µM in assay [8].

As to `O=C(Nc1ccc(F)cc1)c1cc2c(cc1Cl)Sc1nccn1S2(=O)=O`, the TGI in assay [2] is over 100 µM; in assay [3], 92.9 µM; in assay [10], over 100 µM; in [9], over 100 µM; in assay [4], over 100 µM; in assay [5] it was 45.2 µM. In addition, the TGI in assay [6], in [7] and in assay [8] was over 100 µM in each case.

`O=C(CC(C(=O)c1cccs1)c1ccc2c(c1)OCO2)c1ccccc1` (stereo not drawn): the TGI in assay [1], in [2], in assay [3], in [10], in [9] and in assay [4] was over 100 µM throughout. For the same compound, the TGI in assay [5], in assay [6] and in assay [7] was over 100 µM in each case.

Consider `C=C(C)COc1cc(NC(=S)OC(C)C)ccc1Cl`, for which the TGI in [1] amounted to 26.7 µM; in assay [2], 31 µM; in [10], 28.6 µM; in assay [9], 28.6 µM; in assay [4], 25.8 µM; in assay [5], 30.8 µM. For the same compound, the figures for the TGI in assay [6], in [7] and in [8] were 31.6 µM, 30.6 µM and 38.7 µM, respectively.
